The values below come from US7250422B2 (priority 2002, dated 2007).

In series [1] the test system is Male ICR mice. In words: Conditioned place preference test for psychological dependence on morphine. To be noted: p<0.01, FIG. 1. An excerpt:
(§1) 10 to 15 mice per group were used.

Series [2] deals with Male ICR mice. In words: Spontaneous locomotor activity increased by morphine (Video-tracking system). Conditions: for locomotor activity (steps): six days; for suppression of locomotor activity increased by morphine vs morphine control group: p<0.001. In kind it is in vivo. As for the experimental part: as §1
Spontaneous locomotor activity was tested in a plastic chamber (26×30×30 cm) using a Video-tracking system. […] Immediately after the last administration, the mice were placed in the plastic chamber, and spontaneous locomotor activity was recorded for 30 min and analyzed using a computer program.

The next series relates to mice. The series is described as follows: Hot-plate test, morphine tolerance caused by repeated administration. It counts as in vivo. Conditions: berberine 10 mg/kg i.p. 30 min before morphine 10 mg/kg s.c., six days, tested day 7; P<0.01; FIG. 4.
Series [3] relates to Male ICR mice. Conditions: berberine 1, 3 and 10 mg/kg i.p. 30 min before morphine 5 mg/kg s.c.; FIG. 3.
In another series the test system is rats. To be noted: intraperitoneal injection; cited from earlier work.

Turning to `COc1ccc2cc3[n+](cc2c1OC)CCc1cc2c(cc1-3)OCO2` [berberine, 7,8,13,13a-tetradihydro-9,10-dimethoxy-2,3-(methyldioxy)berbinium], the “inhibition of psychological dependence on morphine” value in the series with Male ICR mice [1] (berberine 1 or 2 mg/kg orally one hour before morphine 5 mg/kg i.p., equal to saline control) was “completely inhibited”. Further, the “locomotor activity (steps)” value is 19744 steps with Male ICR mice [2] (berberine 1 mg/kg orally one hour before morphine 10 mg/kg, recorded 30 min) and 20027 steps in the series with Male ICR mice [2] (berberine 2 mg/kg orally one hour before morphine 10 mg/kg, recorded 30 min). The “suppression of locomotor activity increased by morphine vs morphine control group” value in the series with Male ICR mice [2] (berberine 1 mg/kg orally) is given as 61%; with Male ICR mice [2] (berberine 2 mg/kg orally), 60%. Further, the “inhibition of the development of morphine tolerance (AUC)” value in the series on mice was “significantly inhibited”. In addition, in the series on Male ICR mice [3], the “effect on the analgesic effect of morphine (AUC of % MPE)” value is “rarely affect the analgesic effect of morphine”. The LD50 in the series on rats is recorded as 90 mg/kg.

Turning to `CN1CC[C@]23c4c5ccc(O)c4O[C@H]2[C@@H](O)C=C[C@H]3[C@H]1C5` [morphine], the “development of psychological dependence (testing time minus preconditioning time)” value with Male ICR mice [1] (morphine control, 5 mg/kg i.p. on days 3, 5, 7, 9) is “significant psychological dependence”. For the same compound, the “locomotor activity (steps by a forefoot)” value with Male ICR mice [2] (only morphine 10 mg/kg once per day for six days, recorded 30 min) stood at 50242 steps.

Usually LD50 stands for the dose expected to kill half of the subjects tested.
